# Measured values reported in ChEMBL document CHEMBL1800031, “Gold(III) chloride catalyzed regioselective synthesis of pyrano[3,4-b]indol-1(9H)-ones and evaluation of anticancer potential towards human cervix adenocarcinoma” (Bioorg Med Chem Lett, 2011).
# Tested on: HeLa
# Assay: Cytotoxicity against human HeLa cells after 48 hrs by MTT assay
# Type: functional, cell-based
row,SMILES,IC50 [µM]
1,COc1ccc2[nH]c3c(=O)oc(-c4ccccc4)cc3c2c1,0.33
2,CCCCc1cc2c([nH]c3ccccc32)c(=O)o1,2.6
3,CCn1c2ccc(OC)cc2c2cc(-c3ccccc3)oc(=O)c21,1.2
4,O=c1oc(-c2ccccc2)cc2c1[nH]c1ccccc12,19.1
5,COc1ccc2c(c1)c1cc(-c3ccccc3)oc(=O)c1n2Cc1ccccc1,6.7
6,Cn1c2ccccc2c2cc(-c3ccccc3)oc(=O)c21,1.9
7,CCn1c2ccccc2c2cc(-c3ccccc3)oc(=O)c21,11.3
8,CCCCn1c2ccc(OC)cc2c2cc(-c3ccccc3)oc(=O)c21,5
9,CCCCn1c2ccccc2c2cc(-c3ccccc3)oc(=O)c21,3.2
10,COc1ccc2c(c1)c1cc(-c3ccccc3)oc(=O)c1n2C,0.22
